Data: patent US20230322815A1, “NOVEL COMPOUNDS AND THERAPEUTIC USES THEREOF” (University of Huddersfield, priority 2020, published 2023)

Legend:
HT29 tumors = assay: Chick embryo chorioallantoic membrane (CAM) assay, in ovo efficacy; type: in vivo, human tumor cells on chick embryo CAM; settings: for dose giving statistically significant regression of tumor growth (mean tumor weight at E18), comparable to SoC: L2Zn3 26.6, 53.2, 106.4 μM, L2Cu3 23.8, 65.7, 131.46 μM, SoC doxorubicin; for HT29 tumor cell metastasis to the lower CAM: any of the tested doses, data not shown
Protocol: FIG. 23. Activity of [L2Cu3]^6+ and [L2Zn3]^6+ against primary HT29 tumors. The results presented represent the mean tumour weight ±SEM following treatment at 3 different doses of [L2Cu3]^6+ and [L2Zn3]^6+: L2Zn3 [1]=26.6 μM, L2Zn3 [2]=53.2 μM, L2Zn3 [3]=106.4 μM; L2Cu3 [1]=23.8 μM, L2Cu3[2]=65.7 μM, L2Cu3[3]=131.46 μM. SoC doxorubicin. Statistical analysis by one way ANOVA (*): 0.05≥p value >0.01; (**): 0.01≥p value >0.001; (***): 0.001≥p value; (****): 0.0001≥p value. Number per experimental group n=10-14.
[L2Cu3]^6+ and [L2Zn3]^6+ were evaluated at three different doses for in ovo anti-cancer activity, toxicity and anti-metastatic activity against tumors initiated from three different human cancer cell line models (H460, HT29, HCT116), in the chick embryo chorioallantoic membrane (CAM) assay.
Each compound was provided to the contract research organisation (CRO) Inovotion (La Tronche, France) conducting the in ovo study, as a powder pre-weighed in single vials (2 equivalents of ligand, 3 equivalents of metal; and stored at room temperature). Before use, this was then dissolved in DMSO to 50 mM to generate a stock solution and further freshly diluted in RPM11640 or McCoys aqueous cell culture media for administration.
A standard of care (SoC) drug for the particular tumour type was tested concurrently as a comparative control for in vivo efficacy and toxicity evaluation. A solvent control served as a negative control for both SoC and experimental compounds.
(§1) 10^6 tumor cells (H460, HT29 or HCT116) were grafted onto the upper chorioallantoic membrane (CAM) of the developing chick embryo on embryonic day 9 (E9). Access to the upper CAM was through a small hole drilled through the eggshell of fertilized White Leghorn eggs (into the air sac) on E9 (15 eggs per experimental group).
(§2) 100 μl of freshly prepared experimental compound, vehicle control or standard-of-care (SoC) drug at their working concentrations were pipetted onto the tumor graft at E11, E13, E15 and E17. On day E18, the upper CAM (with tumor) was removed, washed by PBS buffer and then directly transferred in PFA (fixation for 48 hrs). After that, tumors were carefully cut away from normal CAM tissue and weighed.
On day E18, a 1 cm^2 portion of the lower CAM was collected (n=8 per group), stored at −20° C. and later processed to extract DNA. Samples were analysed for human genomic DNA (qPCR for Alu sequences) as a quantitative marker of tumor metastasis to the lower CAM.

140 human kinases = assay: Cell-free screen of 140 kinases (33P ATP, Premier Screen); type: biochemical; settings: 10 μM complex
Protocol: FIG. 9. Effects of [L2Zn3]^6+ and [L2Cu3]^6+ on the activity of purified human kinases. a,b, Percentage inhibition of the indicated kinases by [L2Zn3]^6+ (a) and [L2Cu3]^6+ (b) respectively at a concentration of 10 μM; full results are presented in the ESI. c,d, Kinases whose activity is stimulated by [L2Zn3]^6+ (c) or [L2Cu3]^6+ (d) complexes. e,f, Kinome map showing kinases inhibited (red) or stimulated (green) by [L2Zn3]^6+ (e) or [L2Cu3]^6+ (f). III ustration reproduced courtesy of Cell Signalling Technology Inc (www.cellsignal.com)
FIG. 16. The effect of [L2Zn3]^6+ and [L2Cu3]^6+ on the activity of recombinant human kinases. The compounds were submitted to the MRC Protein Phosphorylation and Ubiquitination Unit International Centre for Kinase Profiling (University of Dundee) and tested at a concentration of 10 μM against 140 human kinases (Premier Screen).
Given the ability of the Zn^2+ complex to dephosphorylate amino acids serine, tyrosine and threonine (FIG. 6) and the Cu^2+ complex to bind phenyl phosphate (FIG. 3), it was examined whether the complexes affect the activity of kinases. This was assessed in a cell-free screen of 140 kinases using purified recombinant human kinases and substrate peptides incubated in the presence of ^33P ATP and 10 μM complex or solvent control. […]

[1] = Phosphatase activity: hydrolysis of phenyl phosphate
Protocol: FIG. 6. Phosphatase activity of [L2Zn3]^6+. ^31P NMR spectra using different substrates including PhOPO3 (spectra A to D), serine phosphate (spectra E to H), threonine phosphate (spectra I to L) and tyrosine phosphate (spectra M to P). Specific details for each ^31P NMR spectra are as follows: Spectra A, E, I and M represent substrate alone (44 hrs incubated @ 37° C.); Spectra B, F, J and N represents [L2Zn3]^6+ plus substrate (t=0 min); Spectra C, G, K and O represents [L2Zn3]^6+ plus substrate incubated @ 37° C. for 19 hours; Spectra D, H, L and […] represents [L2Zn3]^6+ plus substrate incubated @ 37° C. for 44 hours. The ^31P NMR of [L2Zn3(PO4)]^3+ gives a signal at 8.6 ppm.
Only [L2Zn3(PO4)]^3+ was observed, coupled with a rapid yellowing of the solution due to the formation of 4-nitrophenolate.
The rate of substrate hydrolysis is also dependent upon the metal used in the self-assembly process.

chick embryo = assay: Embryonic toxicity, HT29 in ovo study; type: in vivo, chick (White Leghorn); settings: for % Alive / % Dead / Alive (embryos at E18) / Dead (embryos at E18): HT29 study; for embryo tolerability: dose escalation showing no increased embryonic toxicity
Protocol: as §1, §2
Embryonic viability was checked daily. The number of dead embryos was also counted on E18, to evaluate treatment-induced embryo toxicity.

[2] = dose [1]: L2Zn3 26.6 μM, L2Cu3 23.8 μM
[3] = dose [2]: L2Zn3 53.2 μM, L2Cu3 65.7 μM
[4] = dose [3]: L2Zn3 106.4 μM, L2Cu3 131.46 μM

[Cu+2].[Cu+2].[Cu+2].c1ccc(-c2csc(NCCN(CCNc3nc(-c4ccccn4)cs3)CCNc3nc(-c4ccccn4)cs3)n2)nc1.c1ccc(-c2csc(NCCN(CCNc3nc(-c4ccccn4)cs3)CCNc3nc(-c4ccccn4)cs3)n2)nc1 [[L2Cu3]^6+]
dose giving statistically significant regression of tumor growth (mean tumor weight at E18), comparable to SoC (HT29 tumors): highest tested dose
HT29 tumor cell metastasis to the lower CAM (HT29 tumors): no reduction
inhibition of the most potently inhibited kinases (140 human kinases): ~100%
hydrolysis of phenyl phosphate ([1]; solid-state and ESI-MS data): does not hydrolyse phenyl phosphate
% Alive (chick embryo; [2]): 71.43%
% Dead (chick embryo; [2]): 28.57%
Alive (embryos at E18) (chick embryo; [2]): 10
Dead (embryos at E18) (chick embryo; [2]): 4
% Alive (chick embryo; [3]): 85.71%
% Dead (chick embryo; [3]): 14.29%
Alive (embryos at E18) (chick embryo; [3]): 12
Dead (embryos at E18) (chick embryo; [3]): 2
% Alive (chick embryo; [4]): 92.31%
% Dead (chick embryo; [4]): 7.69%
Alive (embryos at E18) (chick embryo; [4]): 12
Dead (embryos at E18) (chick embryo; [4]): 1
embryo tolerability (chick embryo): well tolerated

[Zn+2].[Zn+2].[Zn+2].c1ccc(-c2csc(NCCN(CCNc3nc(-c4ccccn4)cs3)CCNc3nc(-c4ccccn4)cs3)n2)nc1.c1ccc(-c2csc(NCCN(CCNc3nc(-c4ccccn4)cs3)CCNc3nc(-c4ccccn4)cs3)n2)nc1 [[L2Zn3]^6+]
dose giving statistically significant regression of tumor growth (mean tumor weight at E18), comparable to SoC (HT29 tumors): highest tested dose
HT29 tumor cell metastasis to the lower CAM (HT29 tumors): no reduction
inhibition of the most potently inhibited kinases (140 human kinases): ~100%
hydrolysis of PhOPO3^2− by 31P NMR ([1]; 25%:75% DMSO and buffered H2O (HEPES pH 7.5), 37° C., after 44 hrs): virtually no signal corresponding to PhOPO3^2− is observed
% Alive (chick embryo; [2]): 85.71%
% Dead (chick embryo; [2]): 14.29%
Alive (embryos at E18) (chick embryo; [2]): 12
Dead (embryos at E18) (chick embryo; [2]): 2
% Alive (chick embryo; [3]): 92.86%
% Dead (chick embryo; [3]): 7.14%
Alive (embryos at E18) (chick embryo; [3]): 13
Dead (embryos at E18) (chick embryo; [3]): 1
% Alive (chick embryo; [4]): 92.86%
% Dead (chick embryo; [4]): 7.14%
Alive (embryos at E18) (chick embryo; [4]): 13
Dead (embryos at E18) (chick embryo; [4]): 1
embryo tolerability (chick embryo): well tolerated
